Tested on: zebrafish embryos
Test: Zebrafish embryo model of EMT inhibition
Format: in vivo
Settings: 100 μM DAPT dissolved in the medium, 32-hpf embryos
Method: The necessary embryos to develop the study were obtained and kept at 28.5° C. in the incubator until the treatment was to begin (24 hpf and 32 hpf). The embryos were dechorionated at 24 hpf and deposited on a Petri dish with E3 medium. Prior to injecting the product, the fish were treated with 0.04% tricaine and, once they were asleep, they were placed on an agarose plate with a number of wedge-shaped grooves, where the embryos were aligned and immobilised in order to be injected. The mixture of the assay product to be injected was loaded in the injection capillary and a volume of 15 nl was injected in the perivitelline space. 20 embryos were injected per condition. […] These were deposited in 24-well plates (5 embryos per well) in 0.5 ml of E3 medium without methylene blue or antibiotic, and incubated at 28.5° C. until they were to be analyzed. As a control, embryos were injected with HBSS +0.5% rhodamine-dextran. […]
The embryos were analyzed at 53, 72 and 96 hpf, and the presence of the following phenotypes was searched for in each of the embryos used in the study: • alteration of the somite bonds (somite boundaries). • morphological alterations of the embryos in general. • appearance of edemas in the pericardial area. • morphological alterations in the heart, as well as alterations in blood circulation and alterations in the formation of the vascular system.

C[C@H](NC(=O)Cc1cc(F)cc(F)c1)C(=O)N[C@H](C(=O)OC(C)(C)C)c1ccccc1 [DAPT]
phenotype of positive control: appearance of pericardial edemas, alterations of the somite bonds, and alteration or absence of blood circulation
